Test results: patent US20230279036A1, “Salts of Remdesivir” (Apotex Inc., priority 2020, published 2023)

Assay: PXRD study of crystalline form stability in a 40° C./75% RH stability chamber
Type: physicochemical
Details: capped and uncapped samples, at least one year
Description: Remdesivir napsylate Form APO-I can be characterized by a PXRD diffractogram comprising, among other peaks, characteristic peaks, expressed in degrees 2θ (±0.2°), at 5.1°, 6.5° and 13.1°. Preferably, the PXRD diffractogram further comprises at least three peaks, expressed in degrees 2θ (±0.2°), selected from the group consisting of 4.5°, 9.0°, 10.0°, 11.5°, 13.6°, 15.3°, 16.4°, 17.2°, 20.2° and 24.3°. More preferably, the PXRD diffractogram further comprises peaks, expressed in degrees 2θ (±0.2°), at 4.5°, 9.0°, 10.0°, 11.5°, 13.6°, 15.3°, 16.4°, 17.2°, 20.2° and 24.3°.
Remdesivir tosylate Form APO-I can be characterized by a PXRD diffractogram comprising, among other peaks, characteristic peaks, expressed in degrees […] (±0.2°), at 5.5°, 7.7° and 13.1°. Preferably, the PXRD diffractogram further comprises at least three peaks, expressed in degrees 2θ (±0.2°), selected from the group consisting of 4.5°, 6.5°, 9.1°, 9.8°, 16.0°, 16.6°, 17.1°, 17.5°, 18.4° and 20.0°. More preferably, the PXRD diffractogram further comprises peaks, expressed in degrees 2θ (±0.2°), at 4.5°, 6.5°, 9.1°, 9.8°, 16.0°, 16.6°, 17.1°, 17.5°, 18.4° and 20.0°.
The PXRD diffractogram was recorded on a Bruker D8 Discover powder X-ray diffractometer (Bruker-AXS, Karlsruhe, Germany). […] Raw data was evaluated using the program EVA (Bruker-AXS, Karlsruhe, Germany).

With `CCC(CC)COC(=O)C(C)NP(=O)(OCC1OC(C#N)(c2ccc3c(N)ncnn23)C(O)C1O)Oc1ccccc1.O=S(=O)(O)c1ccc2ccccc2c1` (centres unmarked) [remdesivir napsylate Form APO-I, remdesivir naphthalene-2-sulfonate Form APO-I] the “change in the crystalline form by PXRD” value was “no change in the crystalline form occurred”.
For `CCC(CC)COC(=O)[C@H](C)N[P@](=O)(OC[C@H]1O[C@@](C#N)(c2ccc3c(N)ncnn23)[C@H](O)[C@@H]1O)Oc1ccccc1.Cc1ccc(S(=O)(=O)O)cc1` [remdesivir tosylate Form APO-1, remdesivir tosylate Form APO-I], the “change in the crystalline form by PXRD” value was “no change in the crystalline form occurred”.
